Reference: the supplement of paper PMC7600603

What was measured:
[1] = tested on: DLD1 NRF2-WT; assay: drug sensitivity score (DSS) cytotoxicity (DSS score); higher = more toxic; extreme values may be limits of the assay; details: 72 h; CellTox Green cytotoxicity
How it was run: (§1)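 TC50 and drug sensitivity score, a normalised area under the curve, were derived by logistic dose-response fits of cytotoxicity. The cells were an isogenic DLD1 colorectal cancer pair, NRF2 wild-type or CRISPR-edited, kept in DMEM with 10% FBS. Compounds were tested in 384-well plates at 5 concentrations across a 10,000-fold range for 72 h. Readings with CellTox Green on a Pherastar FS reader were normalised to vehicle wells and 100-μM positive-control wells.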

[2] = tested on: DLD1 NRF2-GOF; assay: as above; details: 72 h; CellTox Green cytotoxicity
How it was run: as §1

[3] = tested on: DLD1 NRF2-WT; assay: TC50 cytotoxicity; higher = less toxic; details: 72 h; CellTox Green cytotoxicity
How it was run: as §1

[4] = tested on: DLD1 NRF2-GOF; assay: TC50 cytotoxicity; higher = less toxic; details: 72 h; CellTox Green cytotoxicity
How it was run: as §1

[5] = tested on: DLD1 NRF2-WT; details: 72 h; CellTiter-Glo viability
How it was run: (§2)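 EC50 and drug sensitivity score, the latter a normalised area under the curve, were calculated from logistic dose-response fits. The fits had four parameters and used CellTiter-Glo viability data read on a Pherastar FS reader 72 h after treatment, normalised to vehicle wells and 100-μM positive-control wells. Treated cells were isogenic DLD1 colorectal cancer cells, NRF2 wild-type or CRISPR gain-of-function, exposed in 384-well plates to library compounds at 5 concentrations spanning a 10,000-fold range.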

[6] = tested on: DLD1 NRF2-GOF; details: 72 h; CellTiter-Glo viability
How it was run: as §2

[7] = tested on: DLD1 NRF2-WT; assay: drug sensitivity score (DSS) viability (DSS score); higher = more sensitive; extreme values may be limits of the assay; details: 72 h; CellTiter-Glo viability
How it was run: as §2

[8] = tested on: DLD1 NRF2-GOF; assay: as above; details: 72 h; CellTiter-Glo viability
How it was run: as §2

Structure (SMILES) | drug sensitivity score [1] | drug sensitivity score [2] | TC50 cytotoxicity [3] [µM] | TC50 cytotoxicity [4] [µM] | EC50 viability [5] [µM] | EC50 viability [6] [µM] | drug sensitivity score [7] | drug sensitivity score [8]
CO[C@@H](C(=O)N1Cc2[nH]nc(NC(=O)c3ccc(N4CCN(C)CC4)cc3)c2C1)c1ccccc1 [Danusertib] | 2.4 | 0 | > 10 | > 10 | 0.357 | 0.0921 | 10.4 | 16.6
O=C(/C=C/c1cccnc1)NCCCCC1CCN(C(=O)c2ccccc2)CC1 [Daporinad] | 0 | 0 | > 1 | > 1 | 0.004 | 0.0049 | 27.6 | 25.9
CCN(CC)CCN(Cc1ccc(-c2ccc(C(F)(F)F)cc2)cc1)C(=O)Cn1c(SCc2ccc(F)cc2)nc(=O)c2c1CCC2 [Darapladib] | 0 | 0 | > 1 | > 1 | > 1 | > 1 | 0 | 4.1
CC[C@@](C)(Nc1ccnc(-c2c[nH]c3ncccc23)n1)C(=O)NCC(F)(F)F [Decernotinib] | 0 | 0 | > 10 | > 10 | > 10 | > 10 | 0 | 0
CC(=O)N(O)CCCCCNC(=O)CCC(=O)N(O)CCCCCNC(=O)CCC(=O)N(O)CCCCCN [Deferoxamine] | 0 | 0 | > 10 | > 10 | 3.25 | 2.01 | 4.8 | 7
C[C@H]1O[C@@H](O[C@H]2[C@@H](O)C[C@H](O[C@H]3[C@@H](O)C[C@H](O[C@H]4CC[C@@]5(C)[C@H](CC[C@@H]6[C@@H]5C[C@@H](O)[C@]5(C)[C@@H](C7=CC(=O)OC7)CC[C@]65O)C4)O[C@@H]3C)O[C@@H]2C)C[C@H](O)[C@@H]1O [Digoxin] | 4.3 | 4.6 | 0.327 | 0.217 | 0.0473 | 0.0245 | 15.8 | 18.8
CCc1cnn2c(NCc3ccc[n+]([O-])c3)cc(N3CCCC[C@H]3CCO)nc12 [Dinaciclib] | 3.3 | 0 | > 1 | > 1 | 0.0034 | 0.0096 | 27.5 | 21
CCN(CC)C(=S)SSC(=S)N(CC)CC [Disulfiram(+CuCl2)] | 0 | 0 | > 50 | > 50 | > 50 | > 50 | 0.1 | 0.1
Cc1ccc(-n2nc(C(C)(C)C)cc2NC(=O)Nc2ccc(OCCN3CCOCC3)c3ccccc23)cc1 [Doramapimod] | 0 | 0 | > 10 | > 10 | > 10 | > 10 | 0 | 0
COc1cccc2c1C(=O)c1c(O)c3c(c(O)c1C2=O)C[C@@](O)(C(=O)CO)C[C@@H]3O[C@H]1C[C@H](N)[C@H](O)[C@H](C)O1 [Doxorubicin] | 0 | 0 | > 1 | > 1 | 0.168 | 0.139 | 8.1 | 9.2
Cc1ccc(NS(=O)(=O)c2cccc(C#N)c2)c2[nH]cc(C#N)c12 [E7820] | 0 | 0 | > 50 | > 50 | 0.531 | 0.202 | 15.3 | 22.9
Cc1cc(C)c(CNC(=O)c2cc(-c3ccc(CN4CCOCC4)cc3)cc3c2cnn3C2CCCC2)c(=O)[nH]1 [EPZ-5687] | 0 | 0 | > 10 | > 10 | > 10 | 1.68 | 3.3 | 3.2
COC(=O)N[C@@H](C)CNc1nccc(-c2cn(C(C)C)nc2-c2cc(Cl)cc(NS(C)(=O)=O)c2F)n1 [Encorafenib] | 0 | 0 | > 1 | > 1 | 0.412 | 0.387 | 1.1 | 1.3
C[C@@H]1CN(C(=O)c2ccc(NC(=O)c3cc(O[C@H](C)c4c(Cl)ccc(F)c4Cl)c(N)nn3)cc2)C[C@H](C)N1 [Ensartinib] | 0.3 | 0.2 | > 1 | > 1 | > 1 | > 1 | 0 | 0.1
Nc1ccccc1NC(=O)c1ccc(CNC(=O)OCc2cccnc2)cc1 [Entinostat] | 0 | 0 | > 10 | > 10 | > 10 | > 10 | 0 | 0
c1cn2cc(-c3ccc4cn[nH]c4c3)nc(Nc3ccc(N4CCOCC4)cc3)c2n1 [Entospletinib] | 0 | 0 | > 5 | > 5 | > 5 | > 5 | 0 | 0
CNC(=O)c1ccc(N2C(=S)N(c3ccc(C#N)c(C(F)(F)F)c3)C(=O)C2(C)C)cc1F [Enzalutamide] | 0 | 0 | > 10 | > 10 | > 10 | > 10 | 0.5 | 0.1

Structure (SMILES) | drug sensitivity score [1] | drug sensitivity score [2] | TC50 cytotoxicity [3] [µM] | TC50 cytotoxicity [4] [µM] | EC50 viability [5] [µM] | EC50 viability [6] [µM] | drug sensitivity score [7] | drug sensitivity score [8]
Cn1cc(C2=C(c3cn(C4CCN(Cc5ccccn5)CC4)c4ccccc34)C(=O)NC2=O)c2ccccc21 [Enzastaurin] | 0 | 0 | > 10 | > 10 | > 10 | > 10 | 0 | 0
NS(=O)(=O)NCCNc1nonc1/C(=N/O)Nc1ccc(F)c(Br)c1 [Epacadostat] | 0 | 0 | > 10 | > 10 | 1.67 | 1.75 | 3.8 | 3.2
CCOc1ccccc1-n1c(C(C)N2CCN(C(=O)COc3ccc(Cl)cc3)CC2)nc2ccccc2c1=O (configuration not stated) [Erastin] | 0 | 0 | > 10 | > 10 | > 10 | > 10 | 0 | 0
COc1cc(OC)cc(N(CCNC(C)C)c2ccc3ncc(-c4cnn(C)c4)nc3c2)c1 [Erdafitinib] | 0 | 0 | > 1 | > 1 | 0.0421 | 0.133 | 5.9 | 6
C#Cc1cccc(Nc2ncnc3cc(OCCOC)c(OCCOC)cc23)c1 [Erlotinib] | 0 | 0 | > 10 | > 10 | 0.321 | 3.54 | 6.9 | 1.3
C=C1C[C@@H]2[C@H](CC[C@]3(C)C(=O)CC[C@@H]23)[C@@]2(C)C=CC(=O)C=C12 [Exemestane] | 0 | 0 | > 10 | > 10 | > 10 | > 10 | 0.1 | 0.9
CCn1c(=O)c(-c2ccc(Cl)cc2Cl)cc2cnc(Nc3ccc(N4CCNCC4)c(F)c3)nc21 [FRAX486] | 0 | 0 | > 5 | > 5 | 0.25 | 0.626 | 9.8 | 7.1
Cc1cnc(Nc2ccc(OCCN3CCCC3)cc2)nc1Nc1cccc(S(=O)(=O)NC(C)(C)C)c1 [Fedratinib] | 3.8 | 4.3 | 2.4 | 2.5 | 1.41 | 1.89 | 9.6 | 8.2
CON(C)C(=O)N1N=C(c2cc(F)ccc2F)S[C@@]1(CCCN)c1ccccc1 [Filanesib] | 5.3 | 6.2 | > 1 | > 1 | 0.0064 | 0.0046 | 21.5 | 18.6
O=C(Nc1nc2cccc(-c3ccc(CN4CCS(=O)(=O)CC4)cc3)n2n1)C1CC1 [Filgotinib] | 0 | 0.8 | > 10 | > 10 | 2.09 | 0.79 | 6.7 | 11.7
CCCCCCCCc1ccc(CCC(N)(CO)CO)cc1 [Fingolimod] | 5.6 | 6.4 | 2.42 | 2.73 | 3.22 | 2.58 | 5.5 | 6.7
O=c1[nH]c(=O)n([C@H]2C[C@H](O)[C@@H](CO)O2)cc1F [Floxuridine] | 0 | 0 | > 10 | > 10 | 0.255 | 0.259 | 12.2 | 11.8
Nc1nc(F)nc2c1ncn2[C@@H]1O[C@H](CO)[C@@H](O)[C@@H]1O [Fludarabine] | 0 | 0 | > 10 | > 10 | > 10 | > 10 | 0.1 | 0
O=c1[nH]cc(F)c(=O)[nH]1 [Fluorouracil] | 0 | 0 | > 10 | > 10 | 0.001 | 0.176 | 10.3 | 7.1
COc1cc2c(Oc3ccc(NC(=O)C4(C(=O)Nc5ccc(F)cc5)CC4)cc3F)ccnc2cc1OCCCN1CCOCC1 [Foretinib] | 3.2 | 6.3 | 0.28 | 0.267 | 0.414 | 0.361 | 2.1 | 3.3
COc1cc(Nc2ncc(F)c(Nc3ccc4c(n3)N(COP(=O)(O)O)C(=O)C(C)(C)O4)n2)cc(OC)c1OC [Fostamatinib] | 0 | 0.2 | > 2.5 | > 2.5 | 0.0385 | 0.093 | 6.2 | 7.4
CC1(C)OCCn2c1nc1c(N3CCOCC3)nc(-c3cnc(N)nc3)nc12 [GDC-0084] | 1.1 | 0.3 | 3.65 | > 10 | 0.725 | 1.34 | 10.9 | 8.4
